# Data taken from patent publication US20250312462A1, “PAK1 DEGRADERS AND METHODS OF USE THEREOF” (INSTITUTE FOR CANCER RESEARCH D/B/A THE RESEARCH INSTITUTE …, priority 2022, published 2025).
# Columns and labels:
# Experiment in all cases: KINOMEscan
# Settings in all cases: read-out: Percent Control
# ERN1 = ERN1 (Homo sapiens, UniProt O75460)
# Procedure: (§1) The kinase engagement assay (KINOMEscan®) was performed by DiscoverX assessing binding abilities toward a set of kinases.
# CAMK1B = CAMK1B (Homo sapiens, UniProt Q6P2M8)
# Procedure: as §1
# CAMK2A = CAMK2A (Homo sapiens, UniProt Q9UQM7)
# Procedure: as §1
# AKT2 = AKT2 (Homo sapiens, UniProt P31751)
# Procedure: as §1
# [1] = target: RPS6KA4(Kin.Dom.2-C-terminal) (Homo sapiens, UniProt O75676)
# Procedure: as §1
# FAK = FAK (Homo sapiens, UniProt Q05397)
# Procedure: as §1
# CSF1R-autoinhibited = CSF1R-autoinhibited (Homo sapiens, UniProt P07333)
# Procedure: as §1
# SgK110 = SgK110 (Homo sapiens, UniProt P0C264)
# Procedure: as §1
# DRAK2 = DRAK2 (Homo sapiens, UniProt O94768)
# Procedure: as §1
# EPHB3 = EPHB3 (Homo sapiens, UniProt P54753)
# Procedure: as §1
# MLK2 = MLK2 (Homo sapiens, UniProt Q02779)
# Procedure: as §1
# KIT(V559D, T670I) = KIT(V559D, T670I) (Homo sapiens, UniProt P10721, T670I/V559D)
# Procedure: as §1
# STK35 = STK35 (Homo sapiens, UniProt Q8TDR2)
# Procedure: as §1
# YSK1 = YSK1 (Homo sapiens, UniProt O00506)
# Procedure: as §1
# MERTK = MERTK (Homo sapiens, UniProt Q12866)
# Procedure: as §1
# DDR1 = DDR1 (Homo sapiens, UniProt Q08345)
# Procedure: as §1
# PIM3 = PIM3 (Homo sapiens, UniProt Q86V86)
# Procedure: as §1
# ERBB2 = ERBB2 (Homo sapiens, UniProt P04626)
# Procedure: as §1
# MYLK = MYLK (Homo sapiens, UniProt Q15746)
# Procedure: as §1
# PIKFYVE = PIKFYVE (Homo sapiens, UniProt Q9Y2I7)
# Procedure: as §1
# ACVR1 = ACVR1 (Homo sapiens, UniProt Q04771)
# Procedure: as §1
# [2] = target: JAK1(JH1domain-catalytic) (Homo sapiens, UniProt P23458)
# Procedure: as §1
# TNNI3K = TNNI3K (Homo sapiens, UniProt Q59H18)
# Procedure: as §1
# p38-beta = p38-beta (Homo sapiens, UniProt Q15759)
# Procedure: as §1
# SNRK = SNRK (Homo sapiens, UniProt Q9NRH2)
# Procedure: as §1
# EPHB6 = EPHB6 (Homo sapiens, UniProt O15197)
# Procedure: as §1
# BRAF(V600E) = BRAF(V600E) (Homo sapiens, UniProt P15056, V600E)
# Procedure: as §1
# AURKC = AURKC (Homo sapiens, UniProt Q9UQB9)
# Procedure: as §1
# DMPK2 = DMPK2 (Homo sapiens, UniProt Q6DT37)
# Procedure: as §1
# MELK = MELK (Homo sapiens, UniProt Q14680)
# Procedure: as §1
# FLT3(D835H) = FLT3(D835H) (Homo sapiens, UniProt P36888, D835H)
# Procedure: as §1
# LATS2 = LATS2 (Homo sapiens, UniProt Q9NRM7)
# Procedure: as §1
# NEK10 = NEK10 (Homo sapiens, UniProt Q6ZWH5)
# Procedure: as §1
# HIPK3 = HIPK3 (Homo sapiens, UniProt Q9H422)
# Procedure: as §1
# [3] = target: RSK4(Kin.Dom.1-N-terminal) (Homo sapiens, UniProt Q9UK32)
# Procedure: as §1
# KIT(L576P) = KIT(L576P) (Homo sapiens, UniProt P10721, L576P)
# Procedure: as §1
# MST1 = MST1 (Homo sapiens, UniProt Q13043)
# Procedure: as §1
# DRAK2, sequence (O94768 whole entry): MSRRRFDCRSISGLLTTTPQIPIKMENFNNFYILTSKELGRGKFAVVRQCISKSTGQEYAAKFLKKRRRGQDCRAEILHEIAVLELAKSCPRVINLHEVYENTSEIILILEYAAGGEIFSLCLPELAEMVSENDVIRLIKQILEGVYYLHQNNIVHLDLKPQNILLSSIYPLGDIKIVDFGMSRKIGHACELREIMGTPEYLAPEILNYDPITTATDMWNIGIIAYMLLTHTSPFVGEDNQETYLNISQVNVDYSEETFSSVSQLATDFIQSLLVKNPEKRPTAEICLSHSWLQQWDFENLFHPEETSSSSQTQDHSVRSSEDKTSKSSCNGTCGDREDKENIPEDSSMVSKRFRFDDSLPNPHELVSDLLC
# EPHB3, sequence (P54753 34-998): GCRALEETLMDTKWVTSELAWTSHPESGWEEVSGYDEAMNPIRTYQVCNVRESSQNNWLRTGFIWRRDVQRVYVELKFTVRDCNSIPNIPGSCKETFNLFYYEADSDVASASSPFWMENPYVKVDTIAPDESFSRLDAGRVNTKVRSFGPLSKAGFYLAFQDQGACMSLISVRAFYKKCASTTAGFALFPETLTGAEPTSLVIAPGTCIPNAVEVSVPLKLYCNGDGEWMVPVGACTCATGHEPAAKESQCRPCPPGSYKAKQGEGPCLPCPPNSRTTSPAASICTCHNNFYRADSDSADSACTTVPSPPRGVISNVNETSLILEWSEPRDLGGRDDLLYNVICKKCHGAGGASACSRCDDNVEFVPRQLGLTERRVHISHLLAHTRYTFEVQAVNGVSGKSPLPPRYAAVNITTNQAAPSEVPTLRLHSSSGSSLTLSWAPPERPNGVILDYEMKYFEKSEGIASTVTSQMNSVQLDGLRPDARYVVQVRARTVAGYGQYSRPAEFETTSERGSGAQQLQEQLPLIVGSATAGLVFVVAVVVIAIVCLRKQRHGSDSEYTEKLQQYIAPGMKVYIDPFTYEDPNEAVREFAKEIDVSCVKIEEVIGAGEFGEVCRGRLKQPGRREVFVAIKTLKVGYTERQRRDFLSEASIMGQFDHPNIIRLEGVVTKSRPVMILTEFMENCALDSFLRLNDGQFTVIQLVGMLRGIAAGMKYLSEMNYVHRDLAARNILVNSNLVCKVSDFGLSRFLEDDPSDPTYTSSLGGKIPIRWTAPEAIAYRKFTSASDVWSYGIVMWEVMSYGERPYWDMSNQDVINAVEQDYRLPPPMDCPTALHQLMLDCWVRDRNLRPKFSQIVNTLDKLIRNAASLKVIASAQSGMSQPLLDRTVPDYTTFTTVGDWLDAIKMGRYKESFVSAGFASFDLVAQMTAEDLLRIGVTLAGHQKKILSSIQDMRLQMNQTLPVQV
# MELK, sequence (Q14680 whole entry): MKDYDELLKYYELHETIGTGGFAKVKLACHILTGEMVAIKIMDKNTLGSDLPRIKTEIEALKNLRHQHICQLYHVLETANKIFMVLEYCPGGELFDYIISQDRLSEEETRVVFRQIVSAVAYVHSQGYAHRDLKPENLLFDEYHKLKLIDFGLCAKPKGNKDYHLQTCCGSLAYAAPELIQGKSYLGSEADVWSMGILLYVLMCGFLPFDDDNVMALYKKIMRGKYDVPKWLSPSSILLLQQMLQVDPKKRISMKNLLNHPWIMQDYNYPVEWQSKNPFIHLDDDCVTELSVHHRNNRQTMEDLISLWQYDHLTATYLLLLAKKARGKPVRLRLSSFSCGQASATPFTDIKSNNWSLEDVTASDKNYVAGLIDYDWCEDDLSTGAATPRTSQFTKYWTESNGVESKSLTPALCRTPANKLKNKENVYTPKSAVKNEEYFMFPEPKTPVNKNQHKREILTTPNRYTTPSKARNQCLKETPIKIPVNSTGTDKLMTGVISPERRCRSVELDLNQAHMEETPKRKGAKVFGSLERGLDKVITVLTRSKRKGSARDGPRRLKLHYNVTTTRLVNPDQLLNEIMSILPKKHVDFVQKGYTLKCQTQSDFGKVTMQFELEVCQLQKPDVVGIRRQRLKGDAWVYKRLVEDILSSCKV
# MLK2, sequence (Q02779 whole entry): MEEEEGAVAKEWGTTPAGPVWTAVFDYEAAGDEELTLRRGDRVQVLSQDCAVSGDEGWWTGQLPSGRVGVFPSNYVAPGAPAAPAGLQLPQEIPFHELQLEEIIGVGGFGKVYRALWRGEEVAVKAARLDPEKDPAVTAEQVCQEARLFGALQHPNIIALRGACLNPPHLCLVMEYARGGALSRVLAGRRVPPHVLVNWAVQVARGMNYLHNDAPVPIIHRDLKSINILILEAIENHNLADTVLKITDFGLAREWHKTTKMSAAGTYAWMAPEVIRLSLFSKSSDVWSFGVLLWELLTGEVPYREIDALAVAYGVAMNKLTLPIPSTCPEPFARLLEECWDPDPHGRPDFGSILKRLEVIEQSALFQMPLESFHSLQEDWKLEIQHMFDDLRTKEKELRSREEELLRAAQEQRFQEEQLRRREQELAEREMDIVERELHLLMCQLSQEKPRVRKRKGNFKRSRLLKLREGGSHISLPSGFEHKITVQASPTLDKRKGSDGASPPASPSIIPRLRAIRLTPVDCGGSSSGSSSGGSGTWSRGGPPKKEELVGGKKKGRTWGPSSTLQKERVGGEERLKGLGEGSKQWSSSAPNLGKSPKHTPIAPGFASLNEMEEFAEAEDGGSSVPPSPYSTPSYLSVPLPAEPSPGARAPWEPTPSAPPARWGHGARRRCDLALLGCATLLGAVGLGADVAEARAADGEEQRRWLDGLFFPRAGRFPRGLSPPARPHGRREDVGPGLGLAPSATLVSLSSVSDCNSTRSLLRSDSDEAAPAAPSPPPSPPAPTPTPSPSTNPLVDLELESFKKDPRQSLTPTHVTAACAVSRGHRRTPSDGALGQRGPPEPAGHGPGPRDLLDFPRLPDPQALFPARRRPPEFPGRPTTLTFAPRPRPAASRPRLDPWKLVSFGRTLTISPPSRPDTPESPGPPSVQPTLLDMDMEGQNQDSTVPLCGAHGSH
# JAK1(JH1domain-catalytic), sequence (P23458 875-1153 limits assumed): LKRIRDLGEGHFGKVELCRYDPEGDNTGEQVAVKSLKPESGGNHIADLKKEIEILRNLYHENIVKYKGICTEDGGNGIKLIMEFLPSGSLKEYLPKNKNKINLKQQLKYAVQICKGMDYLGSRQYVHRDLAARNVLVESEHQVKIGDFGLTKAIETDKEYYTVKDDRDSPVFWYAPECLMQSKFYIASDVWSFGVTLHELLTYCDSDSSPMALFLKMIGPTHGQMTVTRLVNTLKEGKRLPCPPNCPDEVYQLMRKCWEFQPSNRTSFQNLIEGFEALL
# SNRK, sequence (Q9NRH2 whole entry): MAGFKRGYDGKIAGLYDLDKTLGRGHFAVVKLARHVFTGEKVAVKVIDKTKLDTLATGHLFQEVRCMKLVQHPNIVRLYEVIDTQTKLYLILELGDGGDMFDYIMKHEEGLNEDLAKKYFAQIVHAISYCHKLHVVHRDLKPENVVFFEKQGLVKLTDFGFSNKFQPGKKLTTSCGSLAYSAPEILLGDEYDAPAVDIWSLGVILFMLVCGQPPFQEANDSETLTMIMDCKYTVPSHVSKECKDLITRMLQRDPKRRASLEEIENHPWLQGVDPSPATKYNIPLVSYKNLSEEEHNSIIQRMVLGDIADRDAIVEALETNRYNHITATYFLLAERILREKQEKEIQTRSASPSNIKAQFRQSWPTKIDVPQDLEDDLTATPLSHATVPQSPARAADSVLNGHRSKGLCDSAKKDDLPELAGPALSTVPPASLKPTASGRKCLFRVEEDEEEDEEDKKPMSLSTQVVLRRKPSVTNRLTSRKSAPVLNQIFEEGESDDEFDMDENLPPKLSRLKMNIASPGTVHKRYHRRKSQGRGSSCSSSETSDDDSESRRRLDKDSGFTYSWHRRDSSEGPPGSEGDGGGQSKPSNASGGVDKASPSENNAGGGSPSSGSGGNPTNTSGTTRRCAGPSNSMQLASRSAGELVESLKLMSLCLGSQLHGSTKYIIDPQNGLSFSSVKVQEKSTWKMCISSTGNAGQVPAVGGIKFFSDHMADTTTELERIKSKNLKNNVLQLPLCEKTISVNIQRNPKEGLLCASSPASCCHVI
# TNNI3K, sequence (Q59H18 whole entry): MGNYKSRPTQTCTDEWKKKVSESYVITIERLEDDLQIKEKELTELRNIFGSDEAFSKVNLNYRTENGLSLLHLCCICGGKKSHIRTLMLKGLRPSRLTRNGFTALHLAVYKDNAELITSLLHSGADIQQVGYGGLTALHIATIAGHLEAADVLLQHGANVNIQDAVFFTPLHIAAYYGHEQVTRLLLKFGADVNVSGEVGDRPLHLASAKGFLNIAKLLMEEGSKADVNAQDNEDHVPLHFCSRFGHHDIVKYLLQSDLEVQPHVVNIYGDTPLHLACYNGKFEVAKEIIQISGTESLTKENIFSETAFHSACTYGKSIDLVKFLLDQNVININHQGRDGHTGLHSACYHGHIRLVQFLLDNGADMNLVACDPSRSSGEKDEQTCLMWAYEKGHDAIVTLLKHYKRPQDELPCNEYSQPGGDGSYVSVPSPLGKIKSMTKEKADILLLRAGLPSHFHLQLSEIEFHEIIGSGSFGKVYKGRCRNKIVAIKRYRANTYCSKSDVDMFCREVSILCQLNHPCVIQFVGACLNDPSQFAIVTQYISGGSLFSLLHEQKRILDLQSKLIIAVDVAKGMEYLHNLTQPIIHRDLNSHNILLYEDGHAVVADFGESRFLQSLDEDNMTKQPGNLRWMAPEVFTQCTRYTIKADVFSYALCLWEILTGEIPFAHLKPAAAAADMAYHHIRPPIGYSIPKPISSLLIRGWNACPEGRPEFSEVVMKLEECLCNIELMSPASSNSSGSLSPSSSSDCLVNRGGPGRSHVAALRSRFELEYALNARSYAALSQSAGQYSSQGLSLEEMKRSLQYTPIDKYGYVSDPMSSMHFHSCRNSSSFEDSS
smiles,measurement,setting,value
"O=C1CCC(N2C(=O)c3cccc(NCCCCCCCCNC(=O)N4CC[C@H](NC5=Nc6cc(F)ccc6N(CC(F)F)c6ccc(Cl)cc65)C4)c3C2=O)C(=O)N1 (stereo partly drawn) [BJG-05-039, (3S)-3-((2-Chloro-5-(2,2-difluoroethyl)-8-fluoro-5H-dibenzo[b,e][1,4]diazepin-11-yl)amino)-N-(8-((2-(2,6-dioxopiperidin-3-yl)-1,3-dioxoisoindolin-4-yl)amino)octyl)pyrrolidine-1-carboxamide]",remaining binding at 10 µM,ERN1,93%
same,remaining binding at 10 µM,CAMK1B,87%
same,remaining binding at 10 µM,CAMK2A,39%
same,remaining binding at 10 µM,AKT2,86%
same,remaining binding at 10 µM,[1],99%
same,remaining binding at 10 µM,FAK,65%
same,remaining binding at 10 µM,CSF1R-autoinhibited,100%
same,remaining binding at 10 µM,SgK110,83%
same,remaining binding at 10 µM,DRAK2,58%
same,remaining binding at 10 µM,EPHB3,89%
same,remaining binding at 10 µM,MLK2,97%
same,remaining binding at 10 µM,"KIT(V559D, T670I)",85%
same,remaining binding at 10 µM,STK35,83%
same,remaining binding at 10 µM,YSK1,83%
same,remaining binding at 10 µM,MERTK,90%
same,remaining binding at 10 µM,DDR1,52%
same,remaining binding at 10 µM,PIM3,78%
same,remaining binding at 10 µM,ERBB2,100%
same,remaining binding at 10 µM,MYLK,100%
same,remaining binding at 10 µM,PIKFYVE,79%
same,remaining binding at 10 µM,ACVR1,89%
same,remaining binding at 10 µM,[2],42%
same,remaining binding at 10 µM,TNNI3K,82%
same,remaining binding at 10 µM,p38-beta,97%
same,remaining binding at 10 µM,SNRK,89%
same,remaining binding at 10 µM,EPHB6,97%
same,remaining binding at 10 µM,BRAF(V600E),100%
same,remaining binding at 10 µM,AURKC,83%
same,remaining binding at 10 µM,DMPK2,72%
same,remaining binding at 10 µM,MELK,81%
same,remaining binding at 10 µM,FLT3(D835H),83%
same,remaining binding at 10 µM,LATS2,100%
same,remaining binding at 10 µM,NEK10,99%
same,remaining binding at 10 µM,HIPK3,100%
same,remaining binding at 10 µM,[3],95%
same,remaining binding at 10 µM,KIT(L576P),84%
same,remaining binding at 10 µM,MST1,90%
